The values below come from patent publication US20050031717A1, “Salt taste modification” (priority 2003, published 2005).

“Also recorded” adds a separate entry of the source. Some results are limits rather than exact numbers.

Assay [1] concerns amiloride-insensitive salt taste receptor. In words: Rat chorda tympani (CT) taste nerve recordings. The class given is in vivo. Particulars: for effect on NaCl chorda tympani response: no Bz; for effect on RTX-enhanced NaCl chorda tympani response: 100 mM NaCl+5 μM benzamil+0.75 μM RTX, capsazepine 0-500 μM. The text has this: Chorda tympani nerve recordings. Recordings from the chorda tympani (CT) taste nerves of anesthetized rats were made. Recordings were made with various salt stimuli and with the taste receptive field under current or voltage clamp in order to observe the effect, if any, of modulating the driving force for ions through putative […] apical membrane ion channels involved in salt taste reception.

For assay [2] the test system is unchanged. In words: Chorda tympani responses in wildtype C57BL/6J mice. The class given is in vivo, mouse.
For assay [3] the test system is unchanged.
Assay [4] concerns polarized rat fungiform taste receptor cells. In words: [Na+]i measurement (Na-green F490) in polarized taste receptor cells, unilateral apical Na+ flux. It is filed as cell-based. The text has this:
[Na^+]i measurement in polarized taste receptor cells. A small piece of the anterior lingual epithelium containing a single fungiform papilla was mounted in a special microscopy chamber (Lyall et al., 2002, supra). Relative changes in intracellular sodium activity ([Na^+]i) were monitored in polarized taste receptor cells with the sodium sensitive fluoroprobe sodium-green. The taste receptor cells in the taste bud were visualized from the basolateral side through a 40× objective using a fluorescence microscope.

Setting [5] is: fixed RTX concentration (0.75 μM), 100 mM NaCl+5 μM Bz.

As to `COc1cc(CNC(=O)CCCC/C=C/C(C)C)ccc1O` [capsaicin], in assay [1] (100 mM KCl, 100 mM NH4Cl, 200 μM capsaicin), the “chorda tympani response to KCl and NH4Cl at high capsaicin” value was “a residual response remained”. In assay [1] (100 mM NaCl+5 μM Bz), the “concentration at which the Bz-insensitive NaCl chorda tympani response decreased to rinse level (eliminated)” value came out at 200 µM, the “concentration of maximum enhancement of the Bz-insensitive NaCl chorda tympani response” value was determined as 40 µM and the “rank order potency on the Bz-insensitive NaCl chorda tympani response” value is “RTX>CAP>CPC”. Moreover, in assay [1] (100 mM NaCl+5 μM Bz, listed as CAP), the “concentration of maximum enhancement of the Bz-insensitive NaCl chorda tympani response” value is “around 40 μM”.

With `Nc1ncnc2c1ncn2[C@@H]1O[C@H](COP(=O)(O)OP(=O)(O)OP(=O)(O)O)[C@@H](O)[C@H]1O` [ATP, Adenosine 5′-triphosphate], the “effect on chorda tympani response compared to 100 mM NaCl+5 μM benzamil+100 μM evodiamine” value in assay [1] (100 μM evodiamine+500 μM ATP, 100 mM NaCl+5 μM benzamil) is given as “further enhancement”. The “effect on the temperature threshold of the Bz-insensitive NaCl chorda tympani response” value in assay [1] (ATP 500 μM alone) is listed as “no effect”.

For the molecule `C=C(C)[C@]12C[C@@H](C)[C@@]34O[C@](Cc5ccccc5)(O[C@@H]1[C@@H]3C=C(COC(=O)Cc1ccc(O)c(OC)c1)C[C@]1(O)C(=O)C(C)=C[C@@H]41)O2` [RTX, resiniferatoxin], the “effect on Bz-insensitive NaCl chorda tympani response” value in assay [2] (wildtype mice, 23°, 100 mM NaCl+5 μM Bz+0.75 μM RTX) was “enhanced”. Besides, the “response to RTX at 42°” value in assay [2] (wildtype mice, 42°, 100 mM NaCl+5 μM Bz+0.75 μM RTX) was “significantly enhanced relative to 23°”. Moreover, the CT response profile entry in assay [1] (10 mM KCl+0.5 μM RTX at 23°, no ethanol) is given as “only a transient phasic response”. The “effect of RTX on the CT response to ethanol” value in assay [1] (10 mM KCl+40% ETH+0.5 μM RTX, 23° and 42°) was “enhanced the response”. For the same molecule, in assay [1] (10 mM KCl+60% ETH+0.5 μM RTX), the “effect on temperature threshold of the KCl CT response” value was “without affecting the temperature threshold”. The “effect on NaCl chorda tympani response” value in assay [1] (100 mM NaCl+1 μM RTX) is recorded as “reversibly increased”. For the same molecule, in assay [1] (100 mM NaCl+5 μM Bz), the “concentration at which enhancement of the Bz-insensitive NaCl chorda tympani response begins” value came to 0.1 µM, the “concentration at which the Bz-insensitive NaCl chorda tympani response decreased to rinse level (eliminated)” value is reported as “around 10 μM”, the “concentration at which the NaCl response returned to control level” value is given as “around 3 μM” and the “concentration of maximum enhancement of the Bz-insensitive NaCl chorda tympani response” value came out at 1 µM. For the same molecule, the “rank order potency on the Bz-insensitive NaCl chorda tympani response” value in assay [1] (100 mM NaCl+5 μM Bz) is on record as “RTX>CAP>CPC”. For the same molecule, the “pH of greatest RTX-induced increase in the Bz-insensitive NaCl chorda tympani response” value in assay [1] (100 mM NaCl+5 μM Bz+0.5 μM RTX, pHo 2-10) is 6. The “effect on Bz-insensitive NaCl chorda tympani response” value in assay [1] (100 mM NaCl+5 μM Bz+1 μM RTX) is on record as “same magnitude of enhancement”. The “effect on NaCl chorda tympani response” value in assay [1] (100 mM NaCl+10 μM RTX) was “reversibly decreased”. In addition, the “effect on Bz-insensitive NaCl chorda tympani response” value in assay [1] (NaCl+5 μM Bz+10 μM RTX) is given as “reduced the response (j-k) to rinse level”. Also, the “effect on the CT responses to sucrose, quinine or H+ ions” value in assay [1] (rat, in vivo) is recorded as “no effect”. The “effect on response to NaCl+Bz” value in assay [3] (VR1 knockout mice, 0.75 μM RTX, 23° and 42°) is “No effects”.

For the molecule `CCO` [ethanol], the “CT response relative to 10 mM KCl” value in assay [2] (WT mice, 10 mM KCl+60% ETH) is “greater CT response”. Further, in assay [2] (WT mice, 100 mM NaCl+5 μM Bz+60% ETH), the “effect on Bz-insensitive NaCl CT response” value is recorded as “inhibited the CT response”. The “effect on CT response in the presence of RTX” value in assay [1] (10 mM KCl+0.5 μM RTX, 40% ETH or 60% ETH, 23°) is listed as “increased the CT response in a dose dependent manner”. The CT response profile entry in assay [1] (10 mM KCl+20% ETH at 42°) was “phasic response followed by a sustained tonic phase”; in assay [1] (10 mM KCl+20% ETH+0.5 μM RTX at 23°), “both a phasic component and a sustained tonic component”; in assay [1] (10 mM KCl+20% ETH, 23°) it was “only a transient phasic response”; in assay [1] (10 mM KCl+20% ETH, 23°, listed as ETH), “did not increase the CT response above baseline”; in assay [1] (10 mM KCl+30% ETH), “only a transient phasic response”; in assay [1] (10 mM KCl+40% ETH, 23°, listed as ETH), “transient phasic response that was followed by a sustained tonic response; also recorded: both a phasic and a tonic component”. The CT response profile entry in assay [1] (10 mM KCl+50% ETH and 10 mM KCl+60% ETH) is “both phasic and tonic components”. The “enhancement of the magnitude of the tonic component at 42° relative to 23°” value in assay [1] (10 mM KCl+20% ETH+0.5 μM RTX) is on record as 50%. In addition, the “magnitude of CT response at 42° relative to 23°” value in assay [1] (10 mM KCl+40% ETH) is “enhanced”. The “temperature producing a sharp increase in the KCl CT response” value in assay [1] (10 mM KCl+60% ETH) was found to be 380. For the same molecule, the “temperature of maximum enhancement of the KCl CT response” value in assay [1] (10 mM KCl+60% ETH, 23° to 55.5°) is 41 °. In addition, the “effect on magnitude of the Bz-insensitive NaCl CT response” value in assay [1] (100 mM NaCl+5 mM Bz+60% ethanol) is reported as “decreased”; in assay [1] (100 mM NaCl+5 mM Bz+ETH, 20% to 40% ethanol) it was “dose-dependent increase”. In addition, the “effect of 42° on CT response to ethanol relative to 23°” value in assay [1] (80% ethanol, H2O rinse) is given as “no effect”. For the same molecule, in assay [1] (KCl and NaCl), the “ethanol concentration that inhibited CT responses” value is greater than 60%. For the same molecule, in assay [1] (ethanol 40%-100% in distilled H2O, 23°), the “CT response to ethanol alone” value is listed as “only a transient phasic component”. The “increase in F490 relative to zero ethanol” value in assay [4] (150 NaCl+5 mM Bz+10% ethanol) is listed as “bigger increase”. In addition, in assay [4] (150 NaCl+5 mM Bz+40% ethanol), the “increase in F490 relative to 10% ethanol” value was “further increase”. Besides, the “change in F490 relative to zero ethanol” value in assay [4] (Na+-free Ringer's solution, 10% or 40% ethanol) is reported as “no changes”. For the same molecule, the “CT response to R+60% ETH” value in assay [3] (VR1 KO mice, 10 mM KCl+60% ETH) is “no CT response”. Moreover, in assay [3] (VR1 KO mice, 60% ETH), the “effect on the NaCl CT response or the Bz-insensitive NaCl CT response” value is reported as “no effect”.

As for Evodiamine, the “effect on chorda tympani response in rinse solution” value in assay [1] (100 μM evodiamine in 10 mM KCl) is recorded as “no effect”. Besides, in assay [1] (100 mM NaCl+5 μM Bz), the “concentration at which enhancement of the Bz-insensitive NaCl chorda tympani response begins” value worked out at 30 µM and the “concentration of maximum enhancement of the Bz-insensitive NaCl chorda tympani response” value is 300 µM. Also, in assay [1] (100 mM NaCl+5 μM benzamil), the “concentration at which the response is the same as the control response” value came out at 3 mM and the “effect on chorda tympani response at concentrations higher than 3 mM” value is “inhibited”.

Consider `NC(=NCc1ccccc1)NC(=O)c1nc(Cl)c(N)nc1N` [Bz, benzamil], for which, in assay [2] (wildtype mice, 23°, 100 mM NaCl+5 μM Bz), the “part of the NaCl chorda tympani response that was Bz-insensitive” value is “about 25%”.

For the molecule `Oc1cc2c(cc1O)CN(C(=S)NCCc1ccc(Cl)cc1)CCC2` [capsazepine], the “effect on RTX-enhanced NaCl chorda tympani response” value in assay [1] is “monotonically reduced”. In addition, in assay [1] (listed as CZP), the “effect on RTX-enhanced NaCl chorda tympani response” value is recorded as “dose-dependent inhibition”. In addition, the “effect on RTX concentration response curve of the Bz-insensitive NaCl chorda tympani response” value in assay [1] (CZP 10 μM, RTX 0-10 μM) is reported as “shifted the RTX concentration response curve to the right”. Besides, in assay [1] (setting [5]), the “CZP concentration at which chorda tympani responses decreased to the level with NaCl alone” value stood at 100 µM and the “CZP concentration at which the chorda tympani response was below the level with NaCl alone” value was no less than 250 µM. For the same molecule, the “increase in F490 relative to 150 mM NaCl+5 mM Bz+40% ETH” value in assay [4] (150 mM NaCl+5 mM Bz+40% ETH+100 mM CZP) is listed as “significantly smaller increase”.

Take `COc1cc(CNC(=S)CC(COC(=O)C(C)(C)C)Cc2ccc(C)c(C)c2)ccc1O` (centres unmarked) [Agonist 23, 2-(3,4-dimethylbenzyl)-3-{[(4-hydroxy-3-methoxybenzyl)amino]carbothioyl}propyl pivalate]: in assay [1] (100 mM NaCl+5 μM benzamil), the “effect on CT response at higher concentrations” value is “decrease” and the “effect on CT response at low concentration” value is recorded as “enhances”. The “temperature dependence of effectiveness” value in assay [1] (41° versus 23°) was “more effective at 41°”.

In the case of `COc1cccc(NC(=O)C=Cc2ccc(Cl)cc2)c1` [SB-366791, N-(3-methoxyphenol)-4-chlorocinnamide], the “effect on Bz-insensitive NaCl chorda tympani response at 23° and elevated temperatures” value in assay [1] (1 μM SB-366791, 100 mM NaCl+5 μM Bz) is given as “completely blocked”. Further, the “effect on CT response to RTX+ETH” value in assay [1] (RTX+ETH+0.1 μM SB-366791, 23° and 42°) is given as “completely inhibited the tonic component”. The “effect on transient phasic responses to ethanol” value in assay [1] (ethanol solutions containing 0.1 mM SB-366791) is recorded as “did not affect”. In addition, in assay [4] (150 mM NaCl+), the “increase in F490 on increase of apical Na+ concentration” value was “completely inhibited; also recorded: no increase”. In addition, the “increase in F490 above baseline with ethanol” value in assay [4] (150 mM NaCl++40% ETH) is reported as “no further increase”.
